Measured values: PubChem BioAssay AID292 (DTP/NCI, 2004)
“And” between values parts separate entries of the source, which are not always exact repeats. Equal entries are not always repeated. Inconclusive results and toxic doses are left out. Rule for the calls: active = survival T/C of 150% or more; inactive = T/C below 125% in these data.

Tested on: B6C3F1 mice, ip Sarcoma M5076, median survival T/C
Assay: NCI In Vivo Anticancer Drug Screen. Data for tumor model Sarcoma M5076 (intraperitoneal) in B6C3F1 mice
Conditions: endpoint: median survival time, higher = longer survival
Method in brief: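 The readout is a ratio of survival in drug-treated animals to survival in animals given vehicle alone, taken in mice bearing a transplanted tumour line.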

[1] = dose: 50.0 mg/kg/injection, schedule: Q04DX004 (ip), vehicle: saline
[2] = dose: 50.0 mg/kg/injection, schedule: Q04DX004 (ip), vehicle: suspension in saline
[3] = dose: 100.0 mg/kg/injection, schedule: Q04DX004 (ip), vehicle: saline
[4] = dose: 100.0 mg/kg/injection, schedule: Q04DX004 (ip), vehicle: suspension in saline
[5] = dose: 200.0 mg/kg/injection, schedule: Q04DX004 (ip), vehicle: saline
[6] = dose: 400.0 mg/kg/injection, schedule: Q04DX004 (ip), vehicle: saline
[7] = dose: 12.5 mg/kg/injection, schedule: Q04DX004 (ip), vehicle: water
[8] = dose: 25.0 mg/kg/injection, schedule: Q04DX004 (ip), vehicle: water
[9] = dose: 50.0 mg/kg/injection, schedule: Q04DX004 (ip), vehicle: water
[10] = dose: 25.0 mg/kg/injection, schedule: Q04DX004 (ip), vehicle: saline with Tween-80
[11] = dose: 50.0 mg/kg/injection, schedule: Q04DX004 (ip), vehicle: saline with Tween-80
[12] = dose: 100.0 mg/kg/injection, schedule: Q04DX004 (ip), vehicle: saline with Tween-80
[13] = dose: 200.0 mg/kg/injection, schedule: Q04DX004 (ip), vehicle: saline with Tween-80
[14] = dose: 400.0 mg/kg/injection, schedule: Q04DX004 (ip), vehicle: saline with Tween-80
[15] = dose: 25.0 mg/kg/injection, schedule: Q04DX004 (ip), vehicle: Klucel (hydroxypropylcellulose) (HPC)
[16] = dose: 50.0 mg/kg/injection, schedule: Q04DX004 (ip), vehicle: Klucel (hydroxypropylcellulose) (HPC)
[17] = dose: 100.0 mg/kg/injection, schedule: Q04DX004 (ip), vehicle: Klucel (hydroxypropylcellulose) (HPC)
[18] = dose: 3.12 mg/kg/injection, schedule: Q04DX004 (ip), vehicle: Klucel (hydroxypropylcellulose) (HPC)
[19] = dose: 6.25 mg/kg/injection, schedule: Q04DX004 (ip), vehicle: Klucel (hydroxypropylcellulose) (HPC)
[20] = dose: 12.5 mg/kg/injection, schedule: Q04DX004 (ip), vehicle: Klucel (hydroxypropylcellulose) (HPC)
[21] = dose: 6.25 mg/kg/injection, schedule: Q04DX004 (ip), vehicle: saline with Tween-80
[22] = dose: 12.5 mg/kg/injection, schedule: Q04DX004 (ip), vehicle: saline with Tween-80
[23] = dose: 200.0 mg/kg/injection, schedule: Q04DX004 (ip), vehicle: Klucel (hydroxypropylcellulose) (HPC)
[24] = dose: 25.0 mg/kg/injection, schedule: Q04DX004 (ip), vehicle: saline

Measured: T/C

O=S(O)Cc1ccccc1CSSSCc1ccccc1CS(=O)O
inactive: [1] 105 % of control | [2] 111 % of control | [3] 103 % of control | [4] 95 % of control | [5] 94 % of control | [6] 99 % of control | dose: 400.0 mg/kg/injection, schedule: Q04DX004 (ip), vehicle: suspension in saline 91 % of control | dose: 800.0 mg/kg/injection, schedule: Q04DX004 (ip), vehicle: saline 95 % of control | dose: 800.0 mg/kg/injection, schedule: Q04DX004 (ip), vehicle: suspension in saline 91 % of control

Nc1nc2ncn(O)c2c(=O)[nH]1
inactive: dose: 3.12 mg/kg/injection, schedule: Q04DX004 (ip), vehicle: water 100 % of control | dose: 6.25 mg/kg/injection, schedule: Q04DX004 (ip), vehicle: water 100 % of control | [7] 97 % of control | [8] 93 % of control | [9] 101 % of control

COc1ccc(/C=N/NC(=O)c2ccc(OCc3nc4ccccc4[nH]3)cc2)cc1
inactive: [10] 99 % of control | [11] 100 % of control | [12] 103 % of control | [13] 97 % of control | [14] 97 % of control

O=S1(=O)C(c2ccccc2)=C(O)c2cc3ccccc3nc21
inactive: dose: 31.25 mg/kg/injection, schedule: Q04DX004 (ip), vehicle: saline with Tween-80 97 % of control | dose: 62.5 mg/kg/injection, schedule: Q04DX004 (ip), vehicle: saline with Tween-80 108 % of control | dose: 125.0 mg/kg/injection, schedule: Q04DX004 (ip), vehicle: saline with Tween-80 93 % of control | dose: 250.0 mg/kg/injection, schedule: Q04DX004 (ip), vehicle: saline with Tween-80 102 % of control

Clc1ccc(OCC(Cn2ccnc2)c2ccc(Cl)cc2)cc1 (centres undefined)
inactive: dose: 18.75 mg/kg/injection, schedule: Q04DX004 (ip), vehicle: saline with Tween-80 115 % of control | dose: 37.5 mg/kg/injection, schedule: Q04DX004 (ip), vehicle: saline with Tween-80 102 % of control | dose: 75.0 mg/kg/injection, schedule: Q04DX004 (ip), vehicle: saline with Tween-80 101 % of control

O=C(O)c1ccc(NC(=O)C2C(=O)C(=O)N(c3ccc(C(=O)O)cc3)C2=O)cc1 (centres undefined)
inactive: dose: 50.0 mg/kg/injection, schedule: Q04DX004 (ip), vehicle: Klucel + Tween-80 108 % of control | dose: 100.0 mg/kg/injection, schedule: Q04DX004 (ip), vehicle: Klucel + Tween-80 100 % of control | dose: 200.0 mg/kg/injection, schedule: Q04DX004 (ip), vehicle: Klucel + Tween-80 91 % of control | dose: 400.0 mg/kg/injection, schedule: Q04DX004 (ip), vehicle: Klucel + Tween-80 97 % of control

c1cc2n(n1)CCN2
inactive: dose: 50.0 mg/kg/injection, schedule: Q04DX005 (ip), vehicle: saline 86 % of control

CCc1ccccc1N1CCN(C(=O)c2cc(OC)c(OC)c(OC)c2)CC1
inactive: [15] 111 % of control | [16] 112 % of control | [17] 122 % of control

Cc1c2ccccc2cc2cccc[n+]12
inactive: dose: 10.0 mg/kg/injection, schedule: Q04DX004 (ip), vehicle: saline 100 % of control | dose: 20.0 mg/kg/injection, schedule: Q04DX004 (ip), vehicle: saline 96 % of control | dose: 40.0 mg/kg/injection, schedule: Q04DX004 (ip), vehicle: saline 96 % of control

COc1ccc(-c2c(N3CCOCC3)oc3cc(N4CCOCC4)c(O)cc23)cc1
inactive: [11] 95 % of control | [12] 104 % of control | [13] 98 % of control | [14] 95 % of control

CCCCCC[Se][Se]CCCCCC
inactive: [18] 123 % of control | [19] 106 % of control | [20] 114 % of control | [15] 115 % of control

O=C1C2CC=CCC2C(=O)N1SC(Cl)(Cl)Cl (centres undefined)
inactive: dose: 3.13 mg/kg/injection, schedule: Q04DX004 (ip), vehicle: saline with Tween-80 110 % of control | [21] 120 % of control | [22] 91 % of control | [10] 100 % of control

N=C(N)c1ccc(N=Nc2c(O)ccc3cc(O)ccc23)cc1
inactive: [20] 98 % of control and 103 % of control | [15] 95 % of control and 99 % of control | [16] 96 % of control and 103 % of control | [17] 100 % of control and 103 % of control | [23] 97 % of control and 98 % of control

O=C(O)CC1C(=O)OC2C3COC(=O)c4cc(O)c(O)c(O)c4-c4c(cc(O)c(O)c4O)C(=O)OC2C(OC(=O)c2cc(O)c(O)c4c2C1C(O)C(=O)O4)C(OC(=O)c1cc(O)c(O)c(O)c1)O3 (centres undefined)
inactive: dose: 6.25 mg/kg/injection, schedule: Q04DX004 (ip), vehicle: saline 89 % of control | dose: 12.5 mg/kg/injection, schedule: Q04DX004 (ip), vehicle: saline 96 % of control | [24] 97 % of control | dose: 25.0 mg/kg/injection, schedule: Q04DX004 (ip), vehicle: suspension in saline 96 % of control | [1] 104 % of control | [2] 97 % of control | [3] 96 % of control | [4] 100 % of control

C/C(=N\NC(=S)N1CC2CCC(CC2)C1)c1cccc(C)n1
inactive: [21] 104 % of control and 107 % of control | [22] 101 % of control and 106 % of control and 116 % of control | [10] 104 % of control and 110 % of control and 115 % of control | [11] 101 % of control and 107 % of control and 119 % of control

Nc1nc(C=O)nc2c1ncn2C1OC(CO)C(O)C1O (centres undefined)
inactive: [7] 104 % of control | [8] 104 % of control | [9] 106 % of control | dose: 100.0 mg/kg/injection, schedule: Q04DX004 (ip), vehicle: water 109 % of control | dose: 200.0 mg/kg/injection, schedule: Q04DX004 (ip), vehicle: water 123 % of control

c1cn[nH]c1
inactive: [24] 93 % of control and 100 % of control | [1] 97 % of control and 106 % of control and 107 % of control | [3] 103 % of control and 104 % of control and 107 % of control | [5] 105 % of control and 107 % of control and 110 % of control | [6] 116 % of control

Nc1ccc2c(c1)CN1C(=O)c3ccccc3C1=N2
inactive: [10] 104 % of control | [11] 110 % of control | [12] 116 % of control

CCC(NC(N)=O)C(CC)NC(N)=O (centres undefined)
inactive: [22] 92 % of control | [10] 92 % of control

COc1cc(C#N)c(NC(=S)N2CCN(C(=O)c3ccco3)CC2)cc1OC
inactive: [16] 98 % of control | [17] 111 % of control | [23] 103 % of control | dose: 400.0 mg/kg/injection, schedule: Q04DX004 (ip), vehicle: Klucel (hydroxypropylcellulose) (HPC) 90 % of control

O=c1c2cc3ccccc3cc2c(=O)n2n1CC=CC2
inactive: dose: 20.31 mg/kg/injection, schedule: Q04DX004 (ip), vehicle: Klucel (hydroxypropylcellulose) (HPC) 100 % of control | dose: 40.63 mg/kg/injection, schedule: Q04DX004 (ip), vehicle: Klucel (hydroxypropylcellulose) (HPC) 99 % of control | dose: 81.25 mg/kg/injection, schedule: Q04DX004 (ip), vehicle: Klucel (hydroxypropylcellulose) (HPC) 99 % of control | dose: 162.5 mg/kg/injection, schedule: Q04DX004 (ip), vehicle: Klucel (hydroxypropylcellulose) (HPC) 99 % of control | dose: 325.0 mg/kg/injection, schedule: Q04DX004 (ip), vehicle: Klucel (hydroxypropylcellulose) (HPC) 99 % of control

COC1CC2C=C(C)/C=C/C=C/C(=O)NC(c3ccccc3)C/C=C/CCC(O)CC(=O)C2=C1O (centres undefined)
inactive: [18] 112 % of control | [19] 118 % of control | [20] 110 % of control | [15] 123 % of control

COc1ccc(CCN2C(=O)C(=O)N(c3cccc(Cl)c3)C2=O)cc1OC
inactive: dose: 43.75 mg/kg/injection, schedule: Q04DX004 (ip), vehicle: Klucel (hydroxypropylcellulose) (HPC) 88 % of control | dose: 87.5 mg/kg/injection, schedule: Q04DX004 (ip), vehicle: Klucel (hydroxypropylcellulose) (HPC) 91 % of control | dose: 175.0 mg/kg/injection, schedule: Q04DX004 (ip), vehicle: Klucel (hydroxypropylcellulose) (HPC) 88 % of control | dose: 350.0 mg/kg/injection, schedule: Q04DX004 (ip), vehicle: Klucel (hydroxypropylcellulose) (HPC) 98 % of control | dose: 700.0 mg/kg/injection, schedule: Q04DX004 (ip), vehicle: Klucel (hydroxypropylcellulose) (HPC) 92 % of control
